Data taken from PubChem BioAssay AID588585 (The Scripps Research Institute Molecular Screening Center, 2011).
Calls of active or inactive are those of the source.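 Rule for the calls: active = inhibition of probe labelling of the enzyme band in the gel above 60%; inactive = inhibition at or below 60%.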

System: Fam108b (ABHD17B) serine hydrolase [Mus musculus]
Test: Fam108b hydrolase inhibitors in membrane proteome – cell lysate, gel-based competitive ABPP, full-length membrane form, powders, SAR follow-up (AID 588585)
Conditions: competitive ABPP FP-Rh gel, at 5 µM, active compounds read high

SMILES	inhibition
Fc1ccccc1-c1nc2scc(-c3cccs3)c2c(=S)s1	0% (inactive)
O=c1c2c(-c3ccccc3)csc2ncn1Cc1ccccc1	0% (inactive)
O=c1oc(-c2ccco2)cc2scc(-c3ccc(Br)cc3)c12	0% (inactive)
O=c1[nH]c(=O)c2c(-c3ccccc3)csc2[nH]1	0% (inactive)
CC(C)(C)c1nc2scc(-c3ccccc3)c2c(=S)s1	0% (inactive)
O=c1[nH]c(=S)[nH]c2scc(-c3ccccc3)c12	0% (inactive)

Further lines, results first:

inhibition	SMILES
0% (inactive)	O=c1[nH]c(=S)[nH]c2scc(-c3cccs3)c12
0% (inactive)	O=c1[nH]c(-c2cccs2)nc2scc(-c3ccccc3)c12
0% (inactive)	COc1ccc(-c2csc3cc(-c4ccccc4Cl)oc(=O)c23)cc1
0% (inactive)	Cc1ccc(C2NC(=O)c3c(sc4c3CCCC4)N2)cc1 (centres undefined)
0% (inactive)	O=c1[nH]c(-c2ccccc2)nc2scc(-c3ccccc3)c12
0% (inactive)	Cc1ccc(-c2csc3cc(-c4ccc(Br)cc4)oc(=O)c23)cc1
0% (inactive)	COc1ccc(C2NC(=O)c3c(sc(C)c3C)N2)cc1 (centres undefined)
0% (inactive)	O=c1[nH]c(-c2ccccc2)nc2scc(-c3cccs3)c12
